The test system of the experiment is human adult primary fibroblast cells. The experiment is described as follows: Cell count and viability of samples after thawing (Tripan-Blue exclusion). It is filed as cell-based. Here is the method: Sample Preparation and HT Q-FISH: On processing day, the samples and control cell lines frozen in liquid nitrogen are thawed at 37° C. and cell counts and cellular viability are determined. Aliquots with viability lower than 60% are considered below our QC standards and are not further analyzed. Cells are seeded in clear bottom black-walled 384-well plates at 15,000 cells per well in 5 replicates for each sample and 8 replicates for each control cell line. Cell count: An automated cell counter is used to determine the total number of cells in the vials. A minimum of 100.000 cells are needed to perform TAT. Cell viability by Tripan-Blue exclusion method. The exclusion criteria currently in place will reject aliquots with less than 60% viable cells.

Here are results for one compound from patent publication US20220175693A1, “DIETARY SUPPLEMENT COMPRISING LUTEIN FOR TELOMERE PROTECTION, AND METHOD FOR PRODUCTION THEREOF” (BIOGEN EXTRACTS PRIVATE LIMITED, priority 2019, published 2022).

As to `CC1=C[C@H](O)CC(C)(C)[C@H]1/C=C/C(C)=C/C=C/C(C)=C/C=C/C=C(C)/C=C/C=C(C)/C=C/C1=C(C)C[C@@H](O)CC1(C)C` [Lutein], the “Viability of sample after thawing” value by setting is: (Lutein 1 μg/ml + 10 μM H2O2, week 4 (P4)) 87%; (Lutein 1 μg/ml + 10 μM H2O2, week 8 (P8)) 87%; (Lutein 1 μg/ml, standard culture, week 4 (P4)) 80%; (Lutein 1 μg/ml, standard culture, week 8 (P8)) 91%; (Lutein 5 μg/ml + 10 μM H2O2, week 4 (P4)) 81%; (Lutein 5 μg/ml + 10 μM H2O2, week 8 (P8)) 76%. For the same compound, the “Viability of sample after thawing” value reads like this: (Lutein 5 μg/ml, standard culture, week 4 (P4)) 96%; (Lutein 5 μg/ml, standard culture, week 8 (P8)) 91%; (Lutein 10 μg/ml + 10 μM H2O2, week 4 (P4)) 96%; (Lutein 10 μg/ml + 10 μM H2O2, week 8 (P8)) 92%; (Lutein 10 μg/ml, standard culture, week 4 (P4)) 96%; (Lutein 10 μg/ml, standard culture, week 8 (P8)) 87%.
